Test results from patent US4843158A, “[2,2,1]Cryptand compounds that selectively bind sodium” (priority 1985, dated 1989).

Tests used:
[1] = Cation binding titration, sodium (fluorescence and 19F NMR titrations); settings: for Cation Binding Constant (log k), Na+: 37° C.
Method: (§1) Fluorescence titrations: Ionic titrations of chelator fluorescence were performed on a Perkin Elmer 44E spectrofluorometer at a chelator concentration of 10 μM in 100 mM tris/acetic acid buffer at 37° C. Fluorescence emission from all of the chelators was monitored at a constant wavelength between 370 and 390 nm. The excitation spectra from 210 to 350 nm were recorded in the ratio mode and the proportion of M^n+ chelator complex was calculated from the fluorescence intensities at the most sensitive excitation wavelengths. The binding constants were estimated graphically from plots of log (bound/free) chelator against log free [M^n+ ]. (Slopes were 1.00±<0.05).
(§2) NMR titrations: Nmr spectra were recorded on Bruker WH 200 or Am 400 spectrometers at 188 or 376 MHz respectively at chelator concentrations between 5 and 10 mM in the same buffer as for fluorescence titrations but containing 20% D2 O at 37° C. The spectra were obtained with an acquisition time of 1.0 sec. and a 90° pulse and were processed with resolution enhancement (-0.5 of the observed line width) and appropriate gaussian sensitivity enhancement. The proportion of M^n+ -chelator complex was calculated from the integrals of the resolved free and bound chelator ^19 F resonances, or from the chemical shift of complexes in fast exchange. The apparent affinities were determined graphically as for the fluorescence data, but using a two step iteration from the affinity derived from the fluorescence data when the dissociation constant was close to the chelator concentration in the nmr titrations.

[2] = Cation binding titration, potassium (fluorescence and 19F NMR titrations); settings: 37° C.; from NMR
Method: as §1
as §2, with “The spectra were obtained with an acquisition time of 1.0 sec. and a 90° pulse and were processed with resolution enhancement (-0.5 of the observed line width) and appropriate gaussian sensitivity enhancement.” left out

[3] = Cation induced 19F NMR chemical shift, potassium; assay type: binding; set-up: key: fast exchange; slow exchange; settings: 37° C.
Method: as §2

[4] = Cation induced 19F NMR chemical shift, sodium; assay type: binding; set-up: key: fast exchange; slow exchange; settings: 37° C.
Method: as §2

[5] = assay type: binding; settings: tris/acetic acid buffer
Method: as §1

[6] = Selectivity for sodium ions over potassium (and other) ions; assay type: binding
[7] = test system: cellular function; assay type: cell-based
Method: (§3) Lymphocytes (1 ml packed cells) were prepared from pig mesenteric lymphnodes by standard procedure in RPM1 medium. The cells suspended in RPM1 (200 ml) were treated with the tetra-acetoxymethyl ester of Example 3 (4.5 mg) in DMSO (100 μl) and incubated at 37° C. for 1 hour. The cells were isolated by centrifugation and suspended in RPM1 (20 ml) in the spectrometer probe, with continuous dialysis against oxygenated medium and the data collected. The signal appeared after 3 hours and was collected for a further 3 hours.

[8] = test system: Lymphocytes; experiment: Intracellular sodium by 19F NMR in pig mesenteric lymph node lymphocytes; assay type: cell-based
Method: as §3

O=C(O)CN(CC(=O)O)c1ccc2c(c1)OCCN1CCOCCN(CCO2)c2ccc(F)cc2OCCOc2cc(F)ccc21 [Compound 7a]
Cation Binding Constant (log k), Na+ ([1]; from NMR): 6
Cation Binding Constant (log k), K+ [2]: 2.3
Exchange (fast/slow), K+ [3]: f
Exchange (fast/slow), Na+ [4]: s

O=C(O)CN(CC(=O)O)c1cccc(N2CCN3CCOc4ccc(N(CC(=O)O)CC(=O)O)cc4OCCN(CC2)c2ccc(F)cc2OCCOc2cc(F)ccc23)c1 [Compound 7d]
Cation Binding Constant (log k), H+ [5]: 7.0
Cation Binding Constant (log k), Na+ ([1]; from NMR and from fluorescence at 370 nm): 1.6
Exchange (fast/slow), Na+ [4]: f

CC(=O)c1cc2c(cc1N(CC(=O)O)CC(=O)O)OCCN1CCN(c3cccc(N(CC(=O)O)CC(=O)O)c3)CCN(CCO2)c2ccc(F)cc2OCCOc2cc(F)ccc21 [Compound 8d]
Cation Binding Constant (log k), Na+ ([1]; from NMR): 1.3
Exchange (fast/slow), Na+ [4]: f

CC(=O)OCOC(=O)CN(CC(=O)OCOC(C)=O)c1cccc(N2CCN3CCOc4cc(C(C)=O)c(N(CC(=O)OCOC(C)=O)CC(=O)OCOC(C)=O)cc4OCCN(CC2)c2ccc(F)cc2OCCOc2cc(F)ccc23)c1 [Example 3]
selectivity for sodium ions (in words) [6]: high selectivity for sodium over all other ions and in particular over potassium
adverse effect on cellular function [7]: has not shown any adverse effect on cellular function
Kd ([1]; read-out: dissociation constant of the sodium complex): 40 mM
19F chemical shift downfield from the standard ([8]; 37° C., standard 1,2-bis (2-amino-5-fluorophenoxy) ethane-N,N,N',N'-tetracetic acid): 5.99 ppm
intracellular sodium ion concentration indicated ([8]; from 19F chemical shift): about 13 mM
